Read-outs that look alike come from different tables or passages of the source.
Tests used:
Assay type in all cases: biochemical, Talaromyces emersonii
EG VII = assay: Effects of metal ions, chemical modification reagents, detergents and potential inhibitors on EG VII; conditions: for EG VII activity, Enzyme + reagent (control = 100.0): Preincubation of enzyme with reagent for 30 min (50 C) prior to addition of substrate; for EG VII activity, Substrate + reagent (control = 100.0): Preincubation of substrate with reagent for 30 min (50 C) prior to addition of enzyme
Procedure: (§1) Substrate specificity on various polysaccharides and synthetic glycosides was evaluated by 15 measuring activity against a wide variety of carbohydrates (BBG, lichenan, CMC, other polysaccharides and synthetic glycosides) using the normal β-glucanase assay procedure. • Effects Of Metal Ions, Chemical Modification Reagents And Potential Inhibitors A range of monovalent, divalent and heavy metal ions, at final assay concentrations of 1.0 mM, were investigated for their potential effects on the activities of EG V, EG VI and EG VII, by incubating the enzymes with the chemicals and then conducting the normal enzyme assay. Finally, the inhibitor effects of glycosides, such as disaccharides, lactones and flavanoid glycosides on the purified enzymes were examined. Specified concentrations of each glycoside were included in normal assay cocktails and residual activity determined by comparison with controls (no glycoside present).
(§2) Activity was expressed as a % relative to a control (no metal ion present in incubation mixture). In general, heavy metal ions are thought to inactivate enzymes by forming covalent salts with cysteine, histidine or carboxyl groups. […] A selection of reagents known to modify amino acid R-groups in proteins were tested for their effects on EG V, EG VI and EG VII, both in the absence and presence of substrate (substrate-protective effects could be observed in this manner) (see Table 6).

EG V = assay: Effects of metal ions, chemical modification reagents, detergents and potential inhibitors on EG V; design: decrease in activity of EG V by detergent / loss of activity of EG V by detergent: concentration or dose not given beside the values; conditions: for EG V activity, Enzyme + reagent (control = 100.0): Preincubation of enzyme with reagent for 30 min (50 C) prior to addition of substrate; for EG V activity, Substrate + reagent (control = 100.0): Preincubation of substrate with reagent for 30 min (50 C) prior to addition of enzyme
Procedure: as §1, §2

EG VI = assay: Effects of metal ions, chemical modification reagents, detergents and potential inhibitors on EG VI; conditions: for EV VI activity, Enzyme + reagent (control = 100.0): Preincubation of enzyme with reagent for 30 min (50 C) prior to addition of substrate; for EGVI activity, Substrate + reagent (control = 100.0): Preincubation of substrate with reagent for 30 min (50 C) prior to addition of enzyme; for increase in activity of EG VI: 1 mM metal ion, relative to control without metal ion
Procedure: as §1, §2

[1] = 1st incubation (30 min) enzyme + reagent, 2nd incubation (30 min) + NBS
[2] = 1 mM metal ion, relative to control without metal ion
[3] = pre-incubated with enzyme in advance of the addition of substrate

Row | Compound | EG VII activity, Enzyme + reagent (control = 100.0) (EG VII) | EG VII activity, Substrate + reagent (control = 100.0) (EG VII) | EG V activity, Enzyme + reagent (control = 100.0) (EG V) | EG V activity, Substrate + reagent (control = 100.0) (EG V) | EV VI activity, Enzyme + reagent (control = 100.0) (EG VI) | EGVI activity, Substrate + reagent (control = 100.0) (EG VI) | other results
1 | O[C@H](CS)[C@@H](O)CS [Dithioerythritol] | 773.8 | 360.9 | 270.6 | 271.9 | 657.2 | 917.90 | 
2 | C[S+](C)[O-] [Dimethylsuphoxide] | 194.0 | 100.0 | 125.5 | 93.6 | 124.3 | 141.7 | 
3 | OC[C@H]1O[C@@H](O[C@H]2[C@H](O)[C@@H](O)C(O)O[C@@H]2CO)[C@H](O)[C@@H](O)[C@H]1O (stereo partly shown) [lactose] |  |  |  |  |  |  | concentrations inhibiting EG V (EG V): > 75 mM
4 | O=C(O)c1cc[c]([Hg][Cl])cc1 [p-Chloromercuribenzoate] | 105.4 | 91.6 | 125.4 | 89.7 | 115.4 | 107.1 | 
5 | O=Cc1ccccc1C=O [o-Phthaldialdehyde] | 155.0 | 98.8 | 106.1 | 94.6 | 100.0 | 139.0 | 
6 | [BH4-].[Na+] [Sodium borohydride] | 194.0 | 82.8 | 96.1 | 81.5 | 125.0 | 104.8 | 
7 | [K+] [K^+] |  |  |  |  |  |  | increase in activity of EG VII (EG VII): 20%
8 | OC(CS)C(O)CS (racemic) [DL-DTT] | 575.0 | 348.6 | 218.9 | 264.3 | 514.3 | 915.5 | EG VII activity after protection experiment (control = 100.0) (EG VII; [1]): 94.6; EG V activity after protection experiment (control = 100.0) (EG V; [1]): 204.3; EGVI activity after protection experiment (control = 100.0) (EG VI; [1]): 140.0
9 | [Cl-].c1ccc(-c2nn(-c3ccccc3)[n+](-c3ccccc3)n2)cc1 [2,3,5-Triphenyltetrazolium Chloride] | 98.5 | 100.0 | 97.5 | 89.1 | 97.6 | 97.4 | 
10 | [Na+] [Na^+] |  |  |  |  |  |  | increase in activity of EG V (EG V; [2]): > 39%
11 | Tween 80 |  |  |  |  |  |  | decrease in activity of EG V by detergent (EG V; [3]): 30.8%; loss of activity of EG V by detergent (EG V; simultaneous incubation with substrate): 34.2%
12 | [Ca+2] [Ca^2+] |  |  |  |  |  |  | enhancement of EG VII activity by SO4^2− salt relative to corresponding Cl^− salt (EG VII; 1 mM): ~2 fold; decrease in activity of EG V (EG V; [2]): 21.5-24.6%; increase in activity of EG VI (EG VI): 10%
13 | C[C@H](CCC(=O)NCCS(=O)(=O)O)[C@H]1CC[C@H]2[C@@H]3CC[C@@H]4C[C@H](O)CC[C@]4(C)[C@H]3C[C@H](O)[C@]12C [taurodeoxycholic acid] |  |  |  |  |  |  | decrease in activity of EG V by detergent (EG V; [3]): 22.7%
14 | Tween 20 |  |  |  |  |  |  | decrease in activity of EG V by detergent (EG V; [3]): 12.7%
15 | C[C@H](CCC(=O)NCCS(=O)(=O)O)[C@H]1CC[C@H]2[C@@H]3[C@H](O)C[C@@H]4C[C@H](O)CC[C@]4(C)[C@H]3C[C@H](O)[C@]12C [taurocholic acid] |  |  |  |  |  |  | decrease in activity of EG V by detergent (EG V): 47.7%
16 | [Ba+2] [Ba^2+] |  |  |  |  |  |  | decrease in activity of EG V (EG V; [2]): 16.5%; increase in activity of EG VI (EG VI): 37.6%
